Patent US20240190841A1, “MODULATORS OF BCL6 PROTEOLYSIS AND ASSOCIATED METHODS OF USE” (Arvinas Operations, Inc., priority 2022, published 2024)

The molecules below were run against T1, BCL6 (Homo sapiens, UniProt P41182) (assay: Immunofluorescence high content imaging of BCL6 degradation in T47D cells). Details: T47D breast cancer epithelial cells, 3 days incubation.
T1 construct: endogenous in cells; host or cells: T47D breast cancer epithelial cells
Assay type: cell-based
Description: Immunofluorescence Protocol for High Content Imaging of BCL6
T47D cells were seeded in 100 μl volume of RPMI11640-10% FBS in a 96-well black/clear bottom plates for adherent lines (Corning #3904).
Day 1. T47D breast cancer epithelial cells were seeded at a density so that confluence is ˜70-90% at endpoint. Cells were seeded at 7K/0.1 mL/well the morning prior to the addition of exemplary bifunctional degradation compounds.
Day 2. Prepare an 11 point 3-fold serial dilution of exemplary bifunctional compound in DMSO and aliquot an appropriate volume to cell growth media to generate a 2× final concentration of exemplary bifunctional compound. Add an equal volume (0.1 ml) of 2× exemplary bifunctional compound/media mix to previously plated cells, for a final top concentration in aqueous cell growth media of 0.1 or 1 μM. Incubate for 3 days at 37° C., 5% CO2.
Day 5 Immunofluorescence. Discard cell media. Wash wells with 200 μl of room temperature phosphate-buffered saline (PBS). Prepared 4% paraformaldehyde (PFA) from 16% PFA (Electron Microscopy Sciences #15710) using 1×PBS. Fifty μL of 4% PF was added to each well and incubate for 15 minutes at room temperature to fix the cells. The PFA was aspirated and the cells washed twice with PBS (200 μL)).
Prepared 0.1% Triton X-100 in PBS using 10% triton X-100 stock. The cells were permeabilized by adding 100 μL of the 0.1% Triton X-100 in PBS to each well to permeabilize cells and incubating at room temperature for 15 minutes. Cells were washed twice with PBS.
Prepared 3% BSA/PBS (from Thermofisher #37515 Blocker BSA in TBS, 10%), and 100 μL was added to each well. The cells were incubated for at least 1 hour at room temperature.
Prepared 1% BSA/PBS using Blocker BSA/PBS, and the 3% BSA/PBS removed from the wells.
For no primary antibody controls, 50 μL 1% BSA/PBS was added.
Primary antibody (BCL6 Rb Ab, CST-14895, Cell Signaling) was diluted 1:300 in 1% BSA/PBS using Blocker BSA/PBS.
Fifty μl of primary antibody added to all remaining wells (i.e., all wells other than the primary antibody controls) and the cells were incubated overnight at 4° C. with slow orbital movement.
Day 6. Contents of the wells was removed and the cells washed four times with 200 μL PBS. 1% BSA/PBS was prepared using Blocker BSA in PBS.
Diluted secondary antibody goat anti-Rb IgG Alexa-488 1:1000, and cell mask-Alexa-647 1:3000 in 1% BSA/PBS in the same mix. Add 50 μL to each well and incubate at room temperature for 1 hour in the dark.
Cells were washed three times with 200 μL PBS, and then incubated for 10 minutes with 100 μL Hoechst dye at 1 μg/mL (20 mM stock) to stain cell nuclei. Wells were then washed with 200 μl PBS, and 100 μL of PBS was added to each well and the plate covered plate with a plastic opaque cover. Plates were stored at […] and covered in aluminum foil until imaged.
Plates were equilibrated to room temperature prior to reading. The bottom of the plate was wiped with 70% isopropanol immediately prior to imaging.
Imaging: • 10×, 4 fields/well, include Top hat smoothing in the analysis protocol.
Supplies/Reagents: • 16% paraformaldehyde: Electron Microscopy Sciences #15710 • Hoechst: Thermofisher #62249 • Blocker BSA in PBS, 10%: Thermofisher #37515 • Blocker BSA in TBS, 10%: Thermofisher #37520 • Goat anti-rabbit or mouse AlexaFluor-488: Thermofisher #A11008 • Cell mask deep red AlexaFluor-647: Thermofisher #C10046 • Wash buffer, PBS: 20×PBS, Thermofisher
In the case of `CNC(=O)COc1cc2cc(Nc3nc(N4CCC(O[C@H]5C[C@H](N6CCN(c7ccc8c(c7)n(C7CCC(=O)NC7=O)c(=O)n8C)CC6)C5)CC4)ncc3Cl)ccc2n(C(C)C)c1=O` (stereo partly shown) [Compound 11, 2-({6-[(5-chloro-2-{4-[(1r,3r)-3-{4-[3-(2,6-dioxopiperidin-3-yl)-1-methyl-2-oxo-2,3-dihydro-1H-1,3-benzodiazol-5-yl]piperazin-1-yl}cyclobutoxy]piperidin-1-yl}pyrimidin-4-yl)amino]-2-oxo-1-(propan-2-yl)-1,2-dihydroquinolin-3-yl}oxy)-N-methylacetamide], the DC50 is reported as 10 to 50 nM and the Dmax is reported as under 50%. Work on `CNC(=O)COc1cc2cc(Nc3nc(N4CCC(O[C@H]5C[C@H](N6CCN(c7ccc8c(c7)n(C(C)C)c(=O)n8C7CCC(=O)NC7=O)CC6)C5)CC4)ncc3Cl)ccc2n(C(C)C)c1=O` (stereo partly shown) [Compound 12, 2-({6-[(5-chloro-2-{4-[(1r,3r)-3-{4-[1-(2,6-dioxopiperidin-3-yl)-2-oxo-3-(propan-2-yl)-2,3-dihydro-1H-1,3-benzodiazol-5-yl]piperazin-1-yl}cyclobutoxy]piperidin-1-yl}pyrimidin-4-yl)amino]-2-oxo-1-(propan-2-yl)-1,2-dihydroquinolin-3-yl}oxy)-N-methylacetamide] yielded a DC50 of under 10 nM and a Dmax of at least 70%. Molecule `CNC(=O)COc1cc2cc(Nc3nc(N4CCC(O[C@H]5C[C@H](N6CCN(c7ccc8c(c7)n(C)c(=O)n8C7CCC(=O)NC7=O)[C@H](C)C6)C5)CC4)ncc3Cl)ccc2n(C(C)C)c1=O` (stereo partly drawn) [Compound 13, 2-({6-[(5-chloro-2-{4-[(1r,3r)-3-[(3R)-4-[1-(2,6-dioxopiperidin-3-yl)-3-methyl-2-oxo-2,3-dihydro-1H-1,3-benzodiazol-5-yl]-3-methylpiperazin-1-yl]cyclobutoxy]piperidin-1-yl}pyrimidin-4-yl)amino]-2-oxo-1-(propan-2-yl)-1,2-dihydroquinolin-3-yl}oxy)-N-methylacetamide] has a DC50 of under 10 nM and a Dmax of at least 70%. `CNC(=O)COc1cc2cc(Nc3nc(N4CCC(O[C@H]5C[C@H](N6CCN(c7cc8c(cn7)n(C7CCC(=O)NC7=O)c(=O)n8C)CC6)C5)CC4)ncc3Cl)ccc2n(C(C)C)c1=O` (stereo partly shown) [Compound 14, 2-({6-[(5-chloro-2-{4-[(1r,3r)-3-{4-[3-(2,6-dioxopiperidin-3-yl)-1-methyl-2-oxo-1H,2H,3H-imidazo[4,5-c]pyridin-6-yl]piperazin-1-yl}cyclobutoxy]piperidin-1-yl}pyrimidin-4-yl)amino]-2-oxo-1-(propan-2-yl)-1,2-dihydroquinolin-3-yl}oxy)-N-methylacetamide] showed a DC50 of under 10 nM and a Dmax of 50 to 70%. For `CNC(=O)COc1cc2cc(Nc3nc(N4CCC(O[C@H]5C[C@H](N6CCN(c7cc8c(cc7OC)n(C7CCC(=O)NC7=O)c(=O)n8C)CC6)C5)CC4)ncc3Cl)ccc2n(C(C)C)c1=O` (stereo partly shown) [Compound 15, 2-({6-[(5-chloro-2-{4-[(1r,3r)-3-{4-[1-(2,6-dioxopiperidin-3-yl)-6-methoxy-3-methyl-2-oxo-2,3-dihydro-1H-1,3-benzodiazol-5-yl]piperazin-1-yl}cyclobutoxy]piperidin-1-yl}pyrimidin-4-yl)amino]-2-oxo-1-(propan-2-yl)-1,2-dihydroquinolin-3-yl}oxy)-N-methylacetamide], the DC50 was under 10 nM and the Dmax was 50 to 70%. `CNC(=O)COc1cc2cc(Nc3nc(N4CCC(O[C@H]5C[C@H](N6CCN(c7cnc8c(c7)n(C)c(=O)n8C7CCC(=O)NC7=O)CC6)C5)CC4)ncc3Cl)ccc2n(C(C)C)c1=O` (stereo partly shown) [Compound 16, 2-({6-[(5-chloro-2-{4-[(1r,3r)-3-{4-[3-(2,6-dioxopiperidin-3-yl)-1-methyl-2-oxo-1H,2H,3H-imidazo[4,5-b]pyridin-6-yl]piperazin-1-yl}cyclobutoxy]piperidin-1-yl}pyrimidin-4-yl)amino]-2-oxo-1-(propan-2-yl)-1,2-dihydroquinolin-3-yl}oxy)-N-methylacetamide] was tested, and the DC50 was under 10 nM and the Dmax was 50 to 70%. With `CNC(=O)COc1cc2cc(Nc3nc(N4CCC(O[C@H]5C[C@H](N6CCN(c7ccc8c(ccn8C8CCC(=O)NC8=O)c7)CC6)C5)CC4)ncc3Cl)ccc2n(C(C)C)c1=O` (stereo partly shown) [Compound 17, 2-({6-[(5-chloro-2-{4-[(1r,3r)-3-{4-[1-(2,6-dioxopiperidin-3-yl)-1H-indol-5-yl]piperazin-1-yl}cyclobutoxy]piperidin-1-yl}pyrimidin-4-yl)amino]-2-oxo-1-(propan-2-yl)-1,2-dihydroquinolin-3-yl}oxy)-N-methylacetamide] the DC50 was under 10 nM and the Dmax was at least 70%. Work on `CNC(=O)COc1cc2cc(Nc3nc(N4CCC(O[C@H]5C[C@H](N6CCN(c7ccc8c(c7)n(C)c(=O)n8C7CCC(=O)NC7=O)[C@@H](C)C6)C5)CC4)ncc3Cl)ccc2n(C(C)C)c1=O` (stereo partly drawn) [Compound 18, 2-({6-[(5-chloro-2-{4-[(1r,3r)-3-[(3S)-4-[1-(2,6-dioxopiperidin-3-yl)-3-methyl-2-oxo-2,3-dihydro-1H-1,3-benzodiazol-5-yl]-3-methylpiperazin-1-yl]cyclobutoxy]piperidin-1-yl}pyrimidin-4-yl)amino]-2-oxo-1-(propan-2-yl)-1,2-dihydroquinolin-3-yl}oxy)-N-methylacetamide] yielded a DC50 of under 10 nM and a Dmax of at least 70%. Work on `CNC(=O)COc1cc2cc(Nc3nc(N4CCC(O[C@H]5C[C@H](N6CCN(c7ccc8c(c7C)n(C)c(=O)n8C7CCC(=O)NC7=O)CC6)C5)CC4)ncc3Cl)ccc2n(C(C)C)c1=O` (stereo partly shown) [Compound 19, 2-({6-[(5-chloro-2-{4-[(1r,3r)-3-{4-[1-(2,6-dioxopiperidin-3-yl)-3,4-dimethyl-2-oxo-2,3-dihydro-1H-1,3-benzodiazol-5-yl]piperazin-1-yl}cyclobutoxy]piperidin-1-yl}pyrimidin-4-yl)amino]-2-oxo-1-(propan-2-yl)-1,2-dihydroquinolin-3-yl}oxy)-N-methylacetamide] yielded a DC50 of under 10 nM and a Dmax of at least 70%. For `CNC(=O)COc1cc2cc(Nc3nc(N4CCC(O[C@H]5C[C@H](N6CCN(c7cc8c(cc7C)n(C7CCC(=O)NC7=O)c(=O)n8C)CC6)C5)CC4)ncc3Cl)ccc2n(C(C)C)c1=O` (stereo partly shown) [Compound 20, 2-({6-[(5-chloro-2-{4-[(1r,3r)-3-{4-[1-(2,6-dioxopiperidin-3-yl)-3,6-dimethyl-2-oxo-2,3-dihydro-1H-1,3-benzodiazol-5-yl]piperazin-1-yl}cyclobutoxy]piperidin-1-yl}pyrimidin-4-yl)amino]-2-oxo-1-(propan-2-yl)-1,2-dihydroquinolin-3-yl}oxy)-N-methylacetamide], the DC50 was under 10 nM and the Dmax was at least 70%. In the case of `CNC(=O)COc1cc2cc(Nc3nc(N4CCC(O[C@H]5C[C@H](N6CCN(c7ccc8c(cnn8C8CCC(=O)NC8=O)c7)CC6)C5)CC4)ncc3Cl)ccc2n(C(C)C)c1=O` (stereo partly shown) [Compound 21, 2-({6-[(5-chloro-2-{4-[(1r,3r)-3-{4-[1-(2,6-dioxopiperidin-3-yl)-1H-indazol-5-yl]piperazin-1-yl}cyclobutoxy]piperidin-1-yl}pyrimidin-4-yl)amino]-2-oxo-1-(propan-2-yl)-1,2-dihydroquinolin-3-yl}oxy)-N-methylacetamide], the DC50 is reported as under 10 nM and the Dmax is reported as at least 70%.
